Assay results: patent US9540649B2, “Method for opening tight junctions” (The Provost, Fellows and Scholars of the College of the …, priority 2007, dated 2017)
Entries after “also recorded” stand apart in the source; their conditions may differ.

Legend:
Assay type in all cases: in vivo, C57/Bl6 mice
Tie-2 = Tie-2 expression following suppression of claudin-5 (Western blot); conditions: any time point post delivery of claudin-5 siRNA
occludin = assay: Occludin expression following suppression of claudin-5 (Western blot, immunohistochemistry); conditions: all time points post-delivery of claudin-5 siRNA
BRB = BRB permeability to Hoechst (562 Da), retinal cryosections and flatmounts
Method: In order to determine the permeability of brain and retinal microvessels to a molecule of 562 Daltons, mice were perfused through the left ventricle with 500 μl/g body weight of PBS containing 100 μg/ml Hoechst stain H33342 (Sigma Aldrich, Ireland) and 1 mg/ml FITC-Dextran-4 (FD-4) 24, 48, 72 hours and 1 week post-hydrodynamic delivery of claudin-5 siRNA. Following perfusion, the whole brain was dissected and placed in 4% PFA pH 7.4 overnight at 4° C. and subsequently washed 4×15 mins with PBS. Brains were then embedded in 4% agarose and 50 μm sections were cut using a Vibratome®. Whole eyes were removed and fixed with 4% PFA, and following washing with PBS and cryoprotection using a sucrose gradient, 12 μm cryosections were cut using a cryostat. Following analysis of retinal cryosections with an Olympus FluoView™ FV1000 Confocal microscope, images were oriented correctly using Adobe® Photoshop®.

BBB = assay: MRI assessment of BBB integrity with contrasting agent Gd-DTPA (742 Da)
Method: Following injection of siRNA and using appropriate controls, BBB integrity was assessed in vivo via MRI, using a dedicated small rodent Bruker BioSpec 70/30 (i.e. 7 T, 30 cm bore) with an actively shielded USR Magnet. Mice were anaesthetised with isofluorane, and physiologically monitored (ECG, respiration and temperature) and placed on an MRI-compatible support cradle, which has a built-in system for maintaining the animal's body temperature at 37° C. The cradle was then positioned within the MRI scanner. Accurate positioning is ensured by acquiring an initial rapid pilot image, which is then used to ensure the correct geometry is scanned in all subsequent MRI experiments. Upon insertion into the MRI scanner, high resolution anatomical images of the brain were acquired (100 μm in-plane and 500 μm through-plane spatial resolution). BBB integrity was then visualised in high resolution T1 weighted MR images before and after injection of a 0.1 mM/L/kg bolus of Gd-DTPA (Gadolinium diethylene-triamine pentaacetic acid), administered via the tail vein.
Gd-DTPA was injected in the tail vein to assess whether Gd-TPA would permeate across the BBB. Following injection of siRNA and using appropriate controls, BBB integrity to a molecule of 742 Daltons (Gd-DTPA) was assessed via MRI, using a dedicated small rodent Bruker BioSpec 70/30 (i.e. 7 T, 30 cm bore) with an actively shielded USR Magnet. Mice were anaesthetised with isofluorane, and physiologically monitored (ECG, respiration and temperature) and placed on an MRI-compatible support cradle, which has a built-in system for maintaining the animal's body temperature at 37° C. The cradle was then positioned within the MRI scanner. Accurate positioning is ensured by acquiring an initial rapid pilot image, which is then used to ensure the correct geometry is scanned in all subsequent MRI experiments. Upon insertion into the MRI scanner, high resolution anatomical images of the brain were acquired (100 μm in-plane and 500 μm through-plane spatial resolution). BBB integrity was then visualised in high resolution T1 weighted MR images before and after injection of a 0.1 mM/L/kg bolus of Gd-DTPA (Gadolinium diethylene-triamine pentaacetic acid), administered via the tail vein. Following injection of Gd-DTPA, repeated 3 minute T1-weighted scans were performed over a period of 30 minutes, and images shown are representative of the final scans of this 30 minute period. Statistical analysis of all densitometric results of combined regions of the Cerebellum, Hippocampus and Cortex was performed using ANOVA, with significance represented by a P value of ≦0.05, and results are presented both graphically and in a quantitative image depicting the rate of Gd-DTPA deposition within the brain. All MRI scans were performed on 2 mice from each experimental treatment.

claudin-5 siRNA: siRNA, sense CGUUGGAAAUUCUGGGUCUUU (SEQ ID NO: 1), antisense AGACCCAGAAUUUCCAACGUU (SEQ ID NO: 2) (listed as RNA, chemistry not given here)
Tie-2 (140 kDa) expression, Western blot (Tie-2): no distinct changes | occludin expression, Western blot (occludin): remain un-changed at all time points | Hoechst staining in retinal flatmounts (BRB; 24 and 48 hours post injection): stain extravascular nuclei | extravasation of Hoechst in 12 μm retinal cryosections (BRB; 24 hours post delivery): Inner Nuclear Layer (INL) appearing stained | extravasation of Hoechst in 12 μm retinal cryosections (BRB; 48 hours post delivery): distinct Outer Nuclear Layer (ONL) staining | extravasation of Hoechst H33342 from retinal microvessels, retinal cryosections (BRB; up to 48 hour post-delivery): staining the Inner Nuclear Layer (INL) and Outer Nuclear Layer (ONL) of the retina | densitometric analysis of MRI contrasting, Cerebellum, Hippocampus and Cortex combined (BBB; 24 hours and 48 hours post injection, vs control groups): significant increase in contrasting | Gd-DTPA (742 Da) passage across BBB, MRI (BBB; 24 hours post-injection): Gd-DTPA crossed the BBB and was deposited within the brain | Gd-DTPA (742 Da) passage across BBB, MRI (BBB; 48 hours post-injection): Gd-DTPA crossed the BBB and was deposited within the brain; also recorded: Gd-DTPA crossed the BBB and was deposited in the parenchymal tissue of the brain; also recorded: widespread and intense contrasting throughout the brain; also recorded: extremely large quantities of Gd-DTPA were deposited in the brain | Gd-DTPA (742 Da) passage across BBB, MRI (BBB; 48 hours post-injection, listed as siRNA targeting claudin-5): enhanced contrasting within the brain | Gd-DTPA (742 Da) passage across BBB, MRI (BBB; 72 hours or 1 week post-injection): intact barrier with no deposition of Gd-DTPA | Gd-DTPA (742 Da) passage across BBB, MRI (BBB; 72 hours or 1 week post-injection, listed as siRNA targeting claudin-5): nor was it present; also recorded: no deposition of Gd-DTPA
